These results are taken from patent US20070014718A1, “Kits for gastric emptying measurement” (Atomic Energy Council - Institute of Nuclear Energy Research, priority 2005, published 2007).

Molecules are shown by their SMILES. Like-named read-outs stand apart in the source and are kept apart here.

Series [1] in a line: In-vitro gastric simulation: isotope tracer retention in solid phase of test meal. It counts as in vitro ADME. As to conditions: mimic gastric fluid.
Protocol: After chewing the test meal, it is put into a semi-permeable membrane (Spectra/PorMembrane MWCO 3,500, 54 mm×150 mm) incubated and shook with a simulated gastric juice (2 g (gram) of sodium chloride; 3.2 g of pepsin; and, 7 mL of HCl in 1000 mL, pH 1.2) at 37±2° C. having different time intervals. 5 mL aliquot of the liquid phase were removed at regular 60 min intervals, centrifuged and aliquots of the supernatants removed for C-13 glycine quantification with Liquid Chromatography/Mass Spectrometry.
To assess the extent of Tc-99 m phytate retention in the solid phase of the test meal, a simulated gastric digest is made. A muffin is prepared as described above with 1 mCi of a Tc-99 m phytate, which is equivalent to 156.25 μg (microgram) with a specific activity of 10.06 mCi/μmol (μmol, micromolar) mixed with the dry mix 1 and water. […] 5 mL aliquot of the liquid phase were removed at regular 60 min intervals, centrifuged and aliquots of the supernatants removed for liquid scintillation counting Results are then expressed as a percentage, P %, of the initial amount of a radioactivity added. […]
A short description of series [2]: Shelf-life / chemical stability on storage. The settings on record: stored at a room temperature. It counts as physicochemical. An excerpt: Please refer to FIG. 1 and FIG. 2, which are views showing a kit for a gastric emptying measurement and isotope tracer retention in a solid phase of a test meal, according to the present invention, where isotope tracer retention percentage is obtained in FIG. 2 in vitro gastric digest at pH 2.3 to imitate the gastric condition after administering the test meal. […] A standardized recipe is provided to clinicians in the test meal, which has fixed proportions of carbohydrate, protein, and fat. The raw ingredients in the test meal include a lyophilized egg flour. The characteristic is that the isotope tracer 2 is coagulated with albumin of the egg flour into a solid form at more than 75° C., which means the isotope tracer is well incorporated into a food product. More than 90% of the isotope tracer is retained in a mimic gastric fluid at 35˜39° C. for three hours. […] More than 98% of the Tc-99 m phytate is retained in a mimic gastric fluid at 35˜39° C. for 4 hours. More than 90% of the Tc-99 m DTPA is retained in a mimic gastric fluid at 35˜39° C. for 3 hours The dry mix 1 comprises egg powder (7.4%), all purpose flour (19.6%), glutinous rice powder (3.9%), whole milk powder (35.7%), levulose (fructose) flour (8%), foaming powder (3%), cream powder (22%), cream fragrance powder (0.2%), and salt (0.2%), having a most preferred calorie of about 289.5±12.5 kcal. […]

The conditions of series [3]: for % ^13C (dose/hr): breath, patient X, 50 mg. On the procedure: The test meal is administered after an overnight fast along with 100 mL of water within 10 minutes. The first one of the breath samples is collected before the test meal is administered so that a baseline is obtained. And the rest of the breath samples are collected with an 15-minute intervals during 4 hours after the test meal is administered. A measurement can be conveniently done using an isotope ratio mass spectrometer. The results obtained are then expressed in a δ^13C value (^13C/^12C). […] The ^13CO2 excretion parameters are derived from the chi-square distribution in statistics and the equation is expressed as follows. CD=m(1−e^−kt)^β , where CD is the cumulative percentage of the administered dose; t is the time; and, m is the total cumulative percentage of the dose recovered.
A non-linear regression analysis is performed on the originally measured data to obtain values of the m, k, and β for each individual breath test.
The half emptying time is calculated by making CD equal to m/2 in the CD equation: [formula] B. Lag Phase:
The lag phase for the breath test has been defined, which is expressed as follows: tlag=1/k ln β
The % ^13C dose/hr is calculated by the following equation Eq. 1: [formula] • The definition of mmol ^13C excess in breath (a) and mmol ^13C excess administered (b) were shown below: [formula] • 0.0112372 is the ratio of ^13C/^12C of PDB • % ^13Ct and % ^13Ct0: the concentration of ^13C at time t and t0 (i.e. time zero) • δt=δ^13C value at time t (% ^13Ct−% ^13Ct0) is also called “^13C atom percent excess” [formula] • % ^13Csubstr.=% ^13C present in substrate • M=molar mass of substrate • m=amount of substrate • n=number of atoms, ^13C-labelled • (13) The % ^13C cumulative dose is derived numerically from the % ^13C dose/hr data and is calculated from the following Eq. 2, which informs about the global process. [formula] • n=number of samples per hour • n=4, if a breath sample is taken every 15 minutes • ti=time i
• (14) Mathematically analyzing the ^13CO2 excretion curves with a Sigma plot software. […] All of these parameters were determined by a non-linear regression analysis. The half emptying time is calculated by making CD equal to m/2 in the CD equation and being defined by [formula] • . […] The lag phase for the breath test is expressed as tlag=1/k ln β (Eq. 4).

`O=C([O-])CN(CCN(CC(=O)[O-])CC(=O)[O-])CCN(CC(=O)[O-])CC(=O)[O-].[99Tc+4]` [Tc-99 m DTPA, Tc-99 m DTPA (diethyl-triamine-pentaacetic acid)]: the “isotope tracer retained (incorporated) in the test meal” value in series [1] (35˜39° C. (37±2° C.), 4 hours) was “more than 87%”. Moreover, the “isotope tracer retained in the test meal” value in series [1] (35˜39° C., 3 hours) was “More than 90%”.

In the case of `NC[13C](=O)O` [^13C glycine], in series [2], the shelf-life result was “more than 5 year”. For the same compound, the “% ^13C (dose/hr)” value in series [3] (sampling time 15 min) turned out to be 1.104 % ^13C dose/hr; in series [3] (sampling time 30 min) it was 2.802 % ^13C dose/hr; in series [3] (sampling time 45 min), 3.905 % ^13C dose/hr; in series [3] (sampling time 60 min) it was 4.754 % ^13C dose/hr; in series [3] (sampling time 75 min), 5.603 % ^13C dose/hr; in series [3] (sampling time 90 min), 5.093 % ^13C dose/hr. Moreover, the “% ^13C (dose/hr)” value in series [3] (sampling time 105 min) is 5.857 % ^13C dose/hr; in series [3] (sampling time 120 min) it was 6.027 % ^13C dose/hr; in series [3] (sampling time 135 min), 6.706 % ^13C dose/hr; in series [3] (sampling time 150 min), 5.857 % ^13C dose/hr; in series [3] (sampling time 165 min) it was 5.263 % ^13C dose/hr; in series [3] (sampling time 180 min) it was 4.414 % ^13C dose/hr. Also, the “% ^13C (dose/hr)” value is reported as 3.65 % ^13C dose/hr in series [3] (sampling time 195 min), 3.65 % ^13C dose/hr in series [3] (sampling time 210 min), 3.056 % ^13C dose/hr in series [3] (sampling time 225 min) and 2.547 % ^13C dose/hr in series [3] (sampling time 240 min). The k in series [3] (human, in vivo) is 0.0101. Also, the “m (total cumulative percentage of the dose recovered)” value in series [3] (human, in vivo) came to 22.844. The compound also gave a β in series [3] (human, in vivo) of 2.8256.
